This passage reports IC50 results from patent publication US12187728B2 (Raze Therapeutics, Inc., priority 2015, dated 2025).

The experiment has as its target T1, Human MTHFD2 (Homo sapiens, UniProt P13995).
T1 construct: residues 36-350 in Uniport ID P13995; His6 (N); made in house; host or cells: E. coli
T1 sequence (P13995 36-350): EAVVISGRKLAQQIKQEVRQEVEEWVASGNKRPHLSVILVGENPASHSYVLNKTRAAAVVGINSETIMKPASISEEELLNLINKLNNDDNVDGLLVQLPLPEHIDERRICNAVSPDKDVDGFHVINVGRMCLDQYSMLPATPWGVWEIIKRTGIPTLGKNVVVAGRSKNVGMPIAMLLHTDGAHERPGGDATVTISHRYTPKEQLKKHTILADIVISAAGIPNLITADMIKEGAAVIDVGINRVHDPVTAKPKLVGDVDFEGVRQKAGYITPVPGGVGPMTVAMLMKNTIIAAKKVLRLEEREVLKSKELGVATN
The experiment is described as follows: MTHFD2 Activity Assay (dehydrogenase activity, diaphorase/resazurin coupled fluorescence). It counts as biochemical. The following applies: inhibitory activity (IC50 and/or binding constant); 0.2 nM MTHFD2, 11 concentrations. Put shortly:
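His6-tagged MTHFD2 (res. 36-350), E. coli-expressed, at 0.2 nM preincubated with compound 15 min in Hepes pH 8.0/MgCl2/KH2PO4 buffer; 70 μM CH2-THF, 1 mM NAD+ added with resazurin/diaphorase, 30 min, EDTA stop. Resorufin fluorescence (ex 525/em 598); IC50 from 11-point 4-parameter fit.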
In turn, `C[C@@H](O)CNc1nc2c(c(=O)n(Cc3ccc(Cl)c(Cl)c3)c(=O)n2C)n1C` [Example 9, 1-[(3,4-dichlorophenyl)methyl]-8-{[(2R)-2-hydroxypropyl]amino}-3,7-dimethyl-2,3,6,7-tetrahydro-1H-purine-2,6-dione] showed a half-maximal inhibitory concentration (IC50) of 10 to 1000 nM.
As for `Cn1c(Nc2cccc([C@H]3C[C@H]3C(=O)O)n2)nc2c1c(=O)n(Cc1ccc(Cl)c(Cl)c1)c(=O)n2C` (racemic) [Example 357, (±)-cis-2-(6-((1-(3,4-dichlorobenzyl)-3,7-dimethyl-2,6-dioxo-2,3,6,7-tetrahydro-1H-purin-8-yl)amino)pyridin-2-yl)cyclopropanecarboxylic acid], the figure is 10 to 1000 nM.
Turning to `Cn1c(C(N)c2cccnc2)nc2c1c(=O)n(Cc1cc3c(Cl)cccc3[nH]1)c(=O)n2C` (centres unmarked) [Example 445, 8-[amino(3-pyridyl)methyl]-1-[(4-chloro-1H-indol-2-yl)methyl]-3,7-dimethyl-purine-2,6-dione], the IC50 lay in the range of 10 to 1000 nM.
In the case of `Cn1c(CCN)nc2c1c(=O)n(Cc1cc3c(Cl)cccc3[nH]1)c(=O)n2C` [Example 386, 8-(2-aminoethyl)-1-((4-chloro-1H-indol-2-yl)methyl)-3,7-dimethyl-1H-purine-2,6(3H,7H)-dione] it was 10 to 1000 nM; in that of `Cn1c(C2CCNC2)nc2c1c(=O)n(Cc1[nH]c3cccc(Cl)c3c1Cl)c(=O)n2C` (centres unmarked) [Example 423, 1-((3,4-dichloro-1H-indol-2-yl)methyl)-3,7-dimethyl-8-(pyrrolidin-3-yl)-1H-purine-2,6(3H,7H)-dione], 10 to 1000 nM; in that of `Cn1c(NCCCO)nc2c1c(=O)n(-c1ccc(Cl)c(Cl)c1)c(=O)n2C` [Example 62, 1-(3,4-dichlorophenyl)-8-[(3-hydroxypropyl)amino]-3,7-dimethyl-2,3,6,7-tetrahydro-1H-purine-2,6-dione], above 10000 nM.
In the case of `Cn1c(NC2CC(F)(F)C2)nc2c1c(=O)n(Cc1ccc(Cl)c(Cl)c1)c(=O)n2C` [Example 112, 1-(3,4-dichlorobenzyl)-8-(3,3-difluorocyclobutylamino)-3,7-dimethyl-1H-purine-2,6(3H,7H)-dione] it was 1000 to 5000 nM.
As for `Cc1ccc2[nH]c(Cn3c(=O)c4c(nc(N[C@H]5CC[C@@H](O)C5)n4C)n(C)c3=O)cc2c1` (racemic) [Example 177, (±)-8-((cis)-3-hydroxycyclopentylamino)-3,7-dimethyl-1-((5-methyl-1H-indol-2-yl)methyl)-1H-purine-2,6(3H,7H)-dione], the figure is 10 to 1000 nM; as for `Cn1c(N2CCC(O)CC2)nc2c1c(=O)n(Cc1cc3cc(Cl)ccc3[nH]1)c(=O)n2C` [Example 198, 1-((5-chloro-1H-indol-2-yl)methyl)-8-(4-hydroxypiperidin-1-yl)-3,7-dimethyl-1H-purine-2,6(3H,7H)-dione], 10 to 1000 nM; as for `Cn1c(Nc2cccc(C3CCC(O)C3)n2)nc2c1c(=O)n(Cc1cc3c(Cl)cccc3[nH]1)c(=O)n2C` (centres unmarked) [Example 351, 1-((4-chloro-1H-indol-2-yl)methyl)-8-(6-(3-hydroxycyclopentyl)pyridin-2-ylamino)-3,7-dimethyl-1H-purine 2,6(3H,7H)-dione], 10 to 1000 nM.
The molecule `Cn1c(N[C@@H]2CC[C@H](C(=O)O)C2)nc2c1c(=O)n(Cc1ccc(C(F)(F)F)cc1)c(=O)n2C` [Example 77, (1S,3R)-3-[(3,7-dimethyl-2,6-dioxo-1-{[4-(trifluoromethyl)phenyl]methyl}-2,3,6,7-tetrahydro-1H-purin-8-yl)amino]cyclopentane-1-carboxylic acid] registered a concentration for half-maximal inhibition (IC50) of 1000 to 5000 nM.
`Cn1c(N[C@H]2CC[C@@H](O)C2)nc2c1c(=O)n(Cc1cc(-c3ccccc3)n[nH]1)c(=O)n2C` (racemic) [Example 180, (±)-8-((cis)-3-hydroxycyclopentylamino)-3,7-dimethyl-1-((3-phenyl-1H-pyrazol-5-yl)methyl)-1H-purine-2,6(3H,7H)-dione]: the concentration for half-maximal inhibition (IC50) is above 10000 nM.
In the case of `C/C(=N\O)c1nc2c(c(=O)n(Cc3cc4c(Cl)cccc4[nH]3)c(=O)n2C)n1C` [Example 478, (E)-1-((4-chloro-1H-indol-2-yl)methyl)-8-(1-(hydroxyimino)ethyl)-3,7-dimethyl-1H-purine-2,6(3H,7H)-dione or (Z)-1-((4-chloro-1H-indol-2-yl)methyl)-8-(1-(hydroxyimino)ethyl)-3,7-dimethyl-1H-purine-2,6(3H,7H)-dione] it was 10 to 1000 nM; in that of `COc1cc(Nc2nc3c(c(=O)n(Cc4cc5c(Cl)cccc5[nH]4)c(=O)n3C)n2C)ccn1` [Example 333, 1-[(4-chloro-1H-indol-2-yl)methyl]-8-[(2-methoxy-4-pyridyl)amino]-3,7-dimethyl-purine-2,6-dione], 10 to 1000 nM; in that of `Cn1c(NC2CCCC(C(=O)O)C2)nc2c1c(=O)n(Cc1cc3c(Cl)cccc3[nH]1)c(=O)n2C` (centres unmarked) [Example 308, 3-(1-((4-chloro-1H-indol-2-yl)methyl)-3,7-dimethyl-2,6-dioxo-2,3,6,7-tetrahydro-1H-purin-8-ylamino)cyclohexanecarboxylic acid], 10 to 1000 nM.
As for `Cn1c(N[C@@H]2CC[C@H](CO)C2)nc2c1c(=O)n(Cc1ccc(Cl)c(Cl)c1)c(=O)n2C` (stereo in doubt) [Example 275, 1-(3,4-dichlorobenzyl)-8-((1R,3S)-3-(hydroxymethyl)cyclopentylamino)-3,7-dimethyl-1H-purine-2,6(3H,7H)-dione], the figure is 10 to 1000 nM; as for `Cn1c(Nc2cccnn2)nc2c1c(=O)n(Cc1ccc(Cl)c(Cl)c1)c(=O)n2C` [Example 122, 1-(3,4-dichlorobenzyl)-3,7-dimethyl-8-(pyridazin-3-ylamino)-1H-purine-2,6(3H,7H)-dione], 10 to 1000 nM.
On to `Cn1c(Nc2cccc(CCC(=O)O)c2)nc2c1c(=O)n(Cc1ccc(Cl)c(Cl)c1)c(=O)n2C` [Example 291, 3-(3-(1-(3,4-dichlorobenzyl)-3,7-dimethyl-2,6-dioxo-2,3,6,7-tetrahydro-1H-purin-8-ylamino)phenyl)propanoic acid], for which the concentration for half-maximal inhibition (IC50) lay in the range of 10 to 1000 nM.
With `Cn1c(Nc2cc[nH]n2)nc2c1c(=O)n(Cc1ccc(Cl)c(Cl)c1)c(=O)n2C` [Example 141, 8-(1H-pyrazol-3-ylamino)-1-(3,4-dichlorobenzyl)-3,7-dimethyl-1H-purine-2,6(3H,7H)-dione], the IC50 lay within 1000 to 5000 nM.
As for `Cn1c(N[C@H]2CCNC2)nc2c1c(=O)n(Cc1ccc(Cl)c(Cl)c1)c(=O)n2C` [Example 61, 1-[(3,4-dichlorophenyl)methyl]-3,7-dimethyl-8-{[(3S)-pyrrolidin-3-yl]amino}-2,3,6,7-tetrahydro-1H-purine-2,6-dione], the figure is 1000 to 5000 nM.
The molecule `Cn1c(NC2CCC(CO)C2)nc2c1c(=O)n(Cc1ccc(Cl)c(Cl)c1)c(=O)n2C` (centres unmarked) [Example 255, 1-(3,4-dichlorobenzyl)-8-(3-(hydroxymethyl)cyclopentylamino)-3,7-dimethyl-1H-purine-2,6(3H,7H)-dione] displayed a 50% inhibitory concentration (IC50) of 10 to 1000 nM.
`Cn1c(NCCO)nc2c1c(=O)n(Cc1ccc(Cl)c(Cl)c1)c(=O)n2C` [Example 1, 1-(3,4-dichlorobenzyl)-8-((2-hydroxyethyl)amino)-3,7-dimethyl-1H-purine-2,6(3H,7H)-dione] yielded an IC50 of 1000 to 5000 nM.
As for `Cn1c(Nc2cnccn2)nc2c1c(=O)n(Cc1ccc(Cl)c(Cl)c1)c(=O)n2C` [Example 126, 1-(3,4-dichlorobenzyl)-3,7-dimethyl-8-(pyrazin-2-ylamino)-1H-purine-2,6(3H,7H)-dione], the figure is 10 to 1000 nM.
